Data published in patent US20150113683A1, “METHODS FOR PLANT TRANSFORMATION USING SPECTINOMYCIN SELECTION” (Monsanto Technology LLC, priority 2007, published 2015).
Several values for one entry are separate records, joined by “and”; a condition that tells them apart may be missing. Equal entries are not always repeated.

How the values were obtained:
[1] = tested on: 3 months stored dry soybean explants; test: Stored dry soybean explants, spectinomycin, pre-culture: TF; format: cell-based; conditions: nystatin 50 ppm and thiabendazole 10 ppm dissolved in DMSO added together to INO co-culture media
[2] = tested on: soybean explants; test: BAP or TDZ for 4 days after co-cultivation: GFP-positive bud development, dicamba selection; format: cell-based, soybean (Glycine max); conditions: for # Explants w/ GFP+ buds / % Explants w/ GFP+ buds: 0.01 mg/L dicamba selection, 24 DAI; for effect on final transformation frequencies (TFs): addition of cytokinin with dicamba selection
[3] = tested on: soybean explants; test: BAP during co-culture and post co-culture delay: rooted plants and TF, spectinomycin selection; format: cell-based, soybean (Glycine max); conditions: 150 mg/L spectinomycin selection
Description: Soybean explants were inoculated and co-cultured with Agrobacterium harboring pMON96999 (FIG. 2). The inoculation and co-culture medium were supplemented with 0, 1, 2, 3, 4 or 5 mg/L BAP. […] The explants were then transferred onto selection medium (the same as the delay medium but containing 150 mg/L spectinomycin) for shoot induction and selection. […] To determine how many explants could develop transformed shoots without BAP treatment, explant tissues were assayed for GUS activity at 42 days after inoculation. […] Most of them were axillary, and some of them were apparently chimeric. The explants treated with BAP had much less or non-elongated primary shoots, and more de novo shoots. Many of the shoots elongated on the selection medium and were harvested to induce roots on the root induction medium also containing 150 mg/L spectinomycin as in protocol “A”.

[4] = tested on: soybean explants; test: TDZ during inoculation/co-cultivation: GFP-positive bud/shoot development, glyphosate selection; format: cell-based, soybean (Glycine max); conditions: for # Explants with GFP+ buds/shoots: 200 explants examined
[5] = tested on: soybean explants; test: TDZ in inoculation/co-culture medium: shoots harvested and transformed rooted shoots, glyphosate selection; format: cell-based, soybean (Glycine max)
[6] = tested on: soybean explants; test: TDZ during inoculation and co-culture: development of GUS-positive buds; format: cell-based, soybean (Glycine max); conditions: for # Explants w/ GUS+ buds (13 DAI): 96 explants assayed
[7] = tested on: dry soybean explants; test: Transformation frequency of dry soybean explants using glyphosate or spectinomycin as selective agent; format: cell-based; conditions: Glyphosate 50 uM in regeneration medium; dry soybean explants
[8] = 1 mg/L for 4 days after co-cultivation
[9] = 2 mg/L for 4 days after co-cultivation
[10] = BAP 1 mg/L in co-culture & 4-d post co-culture delay medium
[11] = BAP 2 mg/L in co-culture & 4-d post co-culture delay medium
[12] = BAP 3 mg/L in co-culture & 4-d post co-culture delay medium
[13] = BAP 4 mg/L in co-culture & 4-d post co-culture delay medium
[14] = BAP 5 mg/L in co-culture & 4-d post co-culture delay medium
[15] = TDZ 0.5 mg/L in inoculation and co-cultivation medium
[16] = TDZ 1.0 mg/L in inoculation and co-cultivation medium
[17] = TDZ 1.5 mg/L in inoculation and co-cultivation medium
[18] = TDZ 2.0 mg/L in inoculation and co-cultivation medium
[19] = TDZ 3.0 mg/L in inoculation and co-cultivation medium
[20] = TDZ 1 mg/L for inoculation/co-culture, glyphosate selection
[21] = TDZ 2 mg/L for inoculation/co-culture, glyphosate selection
[22] = TDZ 3 mg/L for inoculation/co-culture, glyphosate selection
[23] = TDZ 0.5 mg/L for inoculation & co-culture
[24] = TDZ 1.0 mg/L for inoculation & co-culture
[25] = TDZ 2.0 mg/L for inoculation & co-culture

## c1ccc2[nH]c(-c3cscn3)nc2c1 [thiabendazole]
[1]
  health of explants: improved the health of explants

## c1ccc(CNc2ncnc3nc[nH]c23)cc1 [BAP, 6-Benzylaminopurine]
[2]; [8]
  # Explants w/ GFP+ buds: 12
  % Explants w/ GFP+ buds: 3.7%
[2]; [9]
  # Explants w/ GFP+ buds: 11
  % Explants w/ GFP+ buds: 3.3%
[2]
  effect on final transformation frequencies (TFs): no visible effect
[3]; [10]
  # Rooted plants: 103
  % TF: 26.1%
[3]; [11]
  # Rooted plants: 94
  % TF: 27.1%
[3]; [12]
  # Rooted plants: 87
  % TF: 24.9%
[3]; [13]
  # Rooted plants: 132
  % TF: 30.3%
[3]; [14]
  # Rooted plants: 116
  % TF: 26.6%

## O=C(Nc1ccccc1)Nc1cnns1 [TDZ, thidiazuron]
[4]; [15]
  Frequency of explants with GFP+ buds/shoots: 18%
  # Explants with GFP+ buds/shoots: 36
[4]; [16]
  Frequency of explants with GFP+ buds/shoots: 24%
  # Explants with GFP+ buds/shoots: 48
[4]; [17]
  Frequency of explants with GFP+ buds/shoots: 25%
  # Explants with GFP+ buds/shoots: 50
[4]; [18]
  Frequency of explants with GFP+ buds/shoots: 30%
  # Explants with GFP+ buds/shoots: 60
[4]; [19]
  Frequency of explants with GFP+ buds/shoots: 32%
  # Explants with GFP+ buds/shoots: 64
[5]; TDZ 0.5 mg/L for inoculation/co-culture, glyphosate selection
  % Transformed rooted shoots: 1.1% and 1.4% and 4.3%
[5]; [20]
  % Transformed rooted shoots: 1.3% and 1.6% and 0.5% and 3.2% and 1%
  Shoots harvested, % Shooting Frequency: 4.9% and 7% and 3.5% and 13% and 6.8%
[5]; [21]
  % Transformed rooted shoots: 0.1% and 1.3% and 0.9% and 0.5%
  Shoots harvested, % Shooting Frequency: 1.4% and 4.9% and 5.1% and 6.7% and 1.9%
[5]; [22]
  % Transformed rooted shoots: 0.6% and 0.7%
  Rooted shoots, Total #: 5 and 8
  Shoots harvested, % Shooting Frequency: 4.7% and 1.9%
  Shoots harvested, Total #: 40 and 20
[2]; [8]
  # Explants w/ GFP+ buds: 71
  % Explants w/ GFP+ buds: 18.3%
[2]; [9]
  # Explants w/ GFP+ buds: 53
  % Explants w/ GFP+ buds: 13.8%
[2]
  effect on final transformation frequencies (TFs): no visible effect
[6]; [23]
  % Explants with GUS+ buds (13 DAI): 18.8%
  # Explants w/ GUS+ buds (13 DAI): 18
[6]; [24]
  % Explants with GUS+ buds (13 DAI): 35.4%
  # Explants w/ GUS+ buds (13 DAI): 34
[6]; [25]
  % Explants with GUS+ buds (13 DAI): 50.0%
  # Explants w/ GUS+ buds (13 DAI): 48

## O=C(O)CNCP(=O)(O)O [Glyphosate, glyphosate]
[7]
  % TF: 2.00%
[5]; comparable experiments utilizing glyphosate as selective agent
  transformation frequency: ~2%

## C[C@@H]1[C@H](O)[C@@H](C)/C=C/C=C/CC/C=C/C=C/C=C/C=C/C(O[C@H]2O[C@H](C)[C@@H](O)[C@H](N)[C@@H]2O)CC2O[C@](O)(CC(O)C(O)CCC(O)CC(O)CC(O)CC(=O)O[C@H]1C)CC(O)C2C(=O)O (stereo partly shown) [nystatin]
[1]
  health of explants: improved the health of explants
